Assay [1] relates to cultured cortical network. Conditions: perfusion with APV and CNQX together; many published reports; cited from earlier work.
Assay [2] concerns cultured network of cortical neurons. Briefly: Spiking activity of cultured cortical network, intracellular and MEA recordings. In kind it is cell-based, rat. Conditions: all three applied together: 5 μM bicuculin, 10 μM DNQX and 20 μM APV; cortical neurons from newborn rats on MEA. The procedure: Culture techniques. Cortical neurons are obtained from newborn rats within 24 hours from birth, following standard procedures. The cortex tissue is digested enzymatically and mechanically dissociated. The neurons are plated directly onto substrate-integrated multi-electrode array (MEA) dishes (see below). The cultures are bathed in MEM supplemented with heat-inactivated horse serum (5%), Glutamine (0.5 mM), Glucose (20 mM), and Gentamycin (10 μg/ml), and maintained in an atmosphere of 37° C., 5% CO2 and 95% air in a tissue culture incubator and during the recording phases. Half of the medium is exchanged twice a week. Experiments are performed in the third week after plating, thus allowing complete maturation of the neurons.
The electrical activity of the cultured network is dependent upon synaptic transmission: there are many published reports showing that the electrical activity in a cultured cortical network may be blocked by perfusion with the N-Methyl-D-aspartate (NMDA) receptor antagonist D-2-amino-5-phosphonovalerate (APV) and non-NMDA receptor antagonist 6-cyano-7-nitroquinoxaline-2,3-dion (CNQX). We repeated these experiments, using intracellular recordings as well as MEA recordings.
Electrophysiological methods. We use arrays of 60 Ti/Au/TiN electrodes, 30 μm in diameter, spaced 200 μm from each other (MultiChannelSystems (MCS), Reutlingen, Germany). The insulation layer (silicon nitride), is pretreated with poly-L-lysine forming a good surface for network development. A commercial 60-channel amplifier (B-MEA-1060, MCS, Reutlingen, Germany) with frequency limits of 10-3000 Hz and a gain of ×1024 is used. The B-MEA-1060 is connected to MCPPlus filter amplifiers (Alpha Omega, Nazareth, Israel) for further amplification (×10 to ×20). Stimulation through the MEA is performed using a dedicated 8-channel stimulus generator (MCS, Reutlingen, Germany). Micro-incubation environment is arranged, to support long-term recordings from MEA dishes. […]

Results on 4 compounds are retold here after patent US7499894B2, “Cerebral programming” (priority 2001, dated 2009).

Take `N#Cc1cc2c(cc1[N+](=O)[O-])=NC(=O)C(=O)N=2` [CNQX, 6-cyano-7-nitroquinoxaline-2,3-dion]: the “electrical activity in a cultured cortical network” value in assay [1] is “blocked”.
With `O=[N+]([O-])c1cc2nc(O)c(O)nc2cc1[N+](=O)[O-]` [DNQX], the “spiking activity within the cultured network” value in assay [2] is “completely abolished”.
For the compound `N[C@H](CCCP(=O)(O)O)C(=O)O` [APV, D-2-amino-5-phosphonovalerate], the “spiking activity within the cultured network” value in assay [2] was “completely abolished”. Moreover, the “electrical activity in a cultured cortical network” value in assay [1] was “blocked”.
Consider `CN1CCc2cc3c(cc2[C@H]1[C@@H]1OC(=O)c2c1ccc1c2OCO1)OCO3` [bicuculin], for which the “spiking activity within the cultured network” value in assay [2] is reported as “completely abolished”.
